Measured values taken from paper PMC8876135, “The Catestatin-Derived Peptides Are New Actors to Fight the Development of Oral Candidosis” (International Journal of Molecular Sciences, 2022).
Converted amounts (≈) assume the structure as drawn. Residues, ends and D or L forms follow the SMILES beside them.

Key:
Candida albicans “R” = type: cell-based; conditions: 24 h, pH 5.6
Protocol: (§1) Strains of Candida albicans, Candida tropicalis and Candida glabrata, frequently found in cases of oral candidosis, were tested for L-bCtl and D-bCtl antimicrobial activity. The sensitive strain of C. albicans (ATCC 10231^TM) was provided by ATCC (Manassas, VA, USA). The resistant strain of C. albicans, the sensitive and resistant strains of C. tropicalis as well as the sensitive and resistant strains of C. glabrata were kindly provided by Dr Valérie Letscher-Bru (Laboratory of Parasitolology and Medical Mycology, Strasbourg, France).
(§2) Each Candida strain was first plated on agar plates and cultured for 24 h at 37 °C. After incubation, one colony per isolate was transferred into 5 mL of Sabouraud medium pH 5.6 (Sigma-Aldrich, Le Pont-de-Claix, France) supplemented with tetracycline (10 μg/mL) and cefotaxime (10 μg/mL) and incubated aerobically under agitation at 37 °C for 24 h. The resulting cultures were resuspended at an absorbance of 0.001 (OD600nm = 0.001) in Sabouraud medium. The OD600nm was evaluated with a spectrophotometer (BIO-RAD Smatspec^TM plus, Schiltigheim, France). In preliminary experiments, we tested RPMI-1640 culture and Sabouraud media. Similar data were obtained but the experiments were more reproducible with Sabouraud than with RPMI1640. Therefore, Sabouraud medium was used in the present study.
(§3) The yeasts (OD600nm = 0.001) were then plated on 96-well microplates and treated with different concentrations of the peptides of interest. After 24 h incubation at 37 °C under agitation, yeast growth was assessed by optical density (OD600nm) using a microplate spectrophotometer (Multiscan EX, Thermo Fisher Scientific, Waltham, MA, USA). All tests were performed in triplicate. The MIC (minimal inhibitory concentration), defined as the lowest concentration of drug able to inhibit 100% of the growth of a pathogen, was determined for the different peptides against all previously described Candida strains, using a modified Gompertz model.

[1] = tested on: Candida albicans “S” (ATCC 10231); type: cell-based; conditions: ATCC 10231, 24 h, pH 5.6
Protocol: as §1, §2, §3

Candida glabrata “R” = type: cell-based; conditions: 24 h, pH 5.6
Protocol: as §1, §2, §3

Candida glabrata “S” = type: cell-based; conditions: 24 h, pH 5.6
Protocol: as §1, §2, §3

Candida tropicalis “R” = type: cell-based; conditions: 24 h, pH 5.6
Protocol: as §1, §2, §3

Candida tropicalis “S” = type: cell-based; conditions: 24 h, pH 5.6
Protocol: as §1, §2, §3

C. albicans = conditions: 24 h, 4 µM
Protocol: as §2, with “Similar data were obtained but the experiments were more reproducible with Sabouraud than with RPMI1640.” left out
The yeasts (OD600nm = 0.001) were then plated on 96-well microplates and treated with different concentrations of the peptides of interest. After 24 h incubation at 37 °C under agitation, yeast growth was assessed by optical density (OD600nm) using a microplate spectrophotometer (Multiscan EX, Thermo Fisher Scientific, Waltham, MA, USA). All tests were performed in triplicate.
The same method was used to evaluate the MICs of peptide/bovine serum albumin combinations (BSA).

[2] = cited from earlier work
Source text: Host-defense peptides (HDPs) have emerged as new attractive candidates in the development of new antimicrobial agents. In addition, HDPs have been proven to be potent immune effectors via the orchestration of immune responses.

MIC C. albicans “R” (Candida albicans “R”) | MIC C. albicans “S” [1] | MIC Candida glabrata “R” (Candida glabrata “R”) | MIC Candida glabrata “S” (Candida glabrata “S”) | MIC Candida tropicalis “R” (Candida tropicalis “R”) | MIC Candida tropicalis “S” (Candida tropicalis “S”) | Compound | inhibition (C. albicans) | stability to bacterial degradation [2]
50 µg/mL (≈ 20.6 µM) | 30 µg/mL (≈ 12.4 µM) | >100 µg/mL | >100 µg/mL | 20 µg/mL (≈ 8.24 µM) | 50 µg/mL (≈ 20.6 µM) | CSCC[C@H](NC(=O)[C@H](CO)NC(=O)[C@@H](N)CCCNC(=N)N)C(=O)N[C@@H](CCCNC(=N)N)C(=O)N[C@@H](CC(C)C)C(=O)N[C@@H](CO)C(=O)N[C@@H](Cc1ccccc1)C(=O)N[C@@H](CCCNC(=N)N)C(=O)N[C@@H](C)C(=O)N[C@@H](CCCNC(=N)N)C(=O)NCC(=O)N[C@@H](Cc1ccc(O)cc1)C(=O)NCC(=O)N[C@@H](Cc1ccccc1)C(=O)N[C@@H](CCCNC(=N)N)C(=O)NCC(=O)N1CCC[C@H]1C(=O)NCC(=O)N[C@@H](CC(C)C)C(=O)N[C@@H](CCC(N)=O)C(=O)N[C@@H](CC(C)C)C(=O)O [bCts] (H-RSMRLSFRARGYGFRGPGLQL-OH) | more than 90% | –
9.6 µg/mL (≈ 5.16 µM) | – | 61.4 µg/mL (≈ 33 µM) | 38.2 µg/mL (≈ 20.5 µM) | 2.0 µg/mL (≈ 1.08 µM) | 9.8 µg/mL (≈ 5.27 µM) | CSCC[C@H](NC(=O)[C@H](CO)NC(=O)[C@@H](N)CCCNC(=N)N)C(=O)N[C@@H](CCCNC(=N)N)C(=O)N[C@@H](CC(C)C)C(=O)N[C@@H](CO)C(=O)N[C@@H](Cc1ccccc1)C(=O)N[C@@H](CCCNC(=N)N)C(=O)N[C@@H](C)C(=O)N[C@@H](CCCNC(=N)N)C(=O)NCC(=O)N[C@@H](Cc1ccc(O)cc1)C(=O)NCC(=O)N[C@@H](Cc1ccccc1)C(=O)N[C@@H](CCCNC(=N)N)C(=O)O [bCtl] (H-RSMRLSFRARGYGFR-OH) | – | resists bacterial degradation
